Literature values in patent publication US12532880B2, “Cryopreservation of cell monolayers” (priority 2018, dated 2026).

Columns and labels:
[1] = system: porcine corneal endothelium; conditions: endothelium cryopreserved in the presence of 2% CS
[2] = system: intact human articular cartilage; conditions: chondroitin sulfate added to the vitrification solution

Substance: chondroitin sulfate [CS]
- Loss of viability in post-thaw culture [1]: 33%
- Cell recovery [2]: 75.4%
